The text below walks through data of US5468760A, “Aralkyl-N-hydroxyureas as inhibitors of 5-lipoxygenase and oxidation of low density lipoprotein” (American Home Products Corporation, priority 1993, dated 1995).

One test has as its target T1, 5-Lipoxygenase (Homo sapiens, UniProt P09917).
T1 construct: endogenous in cells; host or cells: human whole blood from male donors (results expressed per 10^6 neutrophils)
T1 sequence (P09917 1-674): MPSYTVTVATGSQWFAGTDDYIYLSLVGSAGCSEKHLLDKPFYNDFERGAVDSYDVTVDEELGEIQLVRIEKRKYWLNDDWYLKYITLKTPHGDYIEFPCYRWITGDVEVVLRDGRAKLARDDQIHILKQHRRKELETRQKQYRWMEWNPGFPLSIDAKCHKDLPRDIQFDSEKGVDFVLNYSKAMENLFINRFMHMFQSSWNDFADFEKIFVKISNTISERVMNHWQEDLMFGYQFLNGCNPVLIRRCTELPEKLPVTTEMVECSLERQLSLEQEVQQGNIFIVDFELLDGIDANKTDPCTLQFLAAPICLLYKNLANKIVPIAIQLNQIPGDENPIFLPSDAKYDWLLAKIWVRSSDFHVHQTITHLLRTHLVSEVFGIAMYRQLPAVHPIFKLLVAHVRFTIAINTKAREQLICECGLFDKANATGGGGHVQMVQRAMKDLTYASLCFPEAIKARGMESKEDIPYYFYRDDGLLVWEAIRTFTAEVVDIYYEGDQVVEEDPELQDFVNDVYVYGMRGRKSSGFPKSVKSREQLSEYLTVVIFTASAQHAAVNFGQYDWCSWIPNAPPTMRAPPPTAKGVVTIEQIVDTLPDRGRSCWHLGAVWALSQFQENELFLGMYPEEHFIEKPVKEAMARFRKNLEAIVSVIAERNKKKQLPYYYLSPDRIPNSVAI
As to the kind of experiment: Inhibition of 5-Lipoxygenase in Human Whole Blood (LTB4, calcium ionophore A23187). Format: cell-based. The protocol: 1. Inhibition of 5-Lipoxygenase in Human Whole Blood
Blood is obtained in 50-100 ml quantities from male donors. White blood cell counts and differentials are made. Two ml of blood are placed in a 15 ml polypropylene test tube. Test compounds are solubilized in dimethylsulfoxide and diluted in 1:10 in 10% bovine serum albumin in phosphate buffered saline, pH 7.4 resulting in a final dimethylsulfoxide concentration of 0.1% in the blood. Then, solutions of test compounds are added to the blood in a shaking water bath at 37° C. for 10 minutes prior to the addition of 30 μM calcium ionophore (A23 187, Sigma). After ionophore administration, whole blood samples are mixed and incubated for 20 minutes at 37° C. in a shaking water bath. Incubation is terminated by placing samples in an ice bath and immediately adding ethylene glycol-bis-(β-aminoethyl ether)-N,N,N',N'-tetraaceticacid (10 mM). Samples are mixed and centrifuged at 1200 x g for 15 minutes at 4° C. Preparation of samples for evaluation by RIA or ELISA is carried out by the following protocol. Plasma is removed from sample tubes, placed in 15 ml polypropylene test tubes containing 8 ml methanol, and then vortexed to precipitate protein. Samples are stored at -70° C. overnight. The next day, samples are centrifuged at 200 x g for 15 minutes at 4° C. to pellet the precipitate. Samples are dried in a Savant SpeedVac Concentrator, Model SVC 200H, reconstituted to original volume with ice cold RIA or ELISA buffer, and stored at -70° C. until assayed. The assay for eicosanoids (LTB4, TxB2, and PGE2) is performed as described by the manufacturer of the [^3 H]-RIA kit or ELISA kit (LTB4 -Amersham, TxB2 and PGE2 -Caymen Chemical).
The total eicosanoid level in 2 ml of blood is calculated and reported as ng/10^6 neutrophils. Significance is determined by a one-way analysis of variance with least significant difference (LSD) comparisons to control (p≤0.05) and IC50 's (μM) are determined by regression analysis (Finney, 1978). Drug effects are expressed as percent change from control values.

The next test deals with LTB4 Synthesis. Briefly: Reverse Passive Arthus Reaction (pleurisy), LTB4 in pleural exudate. It counts as in vivo, rat (male Lewis). Particulars: for ED50: Rattus norvegicus, po, values in parentheses are ED50, read-out: (ED50) Inhibition of LTB4; for ED50 / % Inhibition of LTB4: standard drugs. How it is done:
3. Reverse Passive Arthus Reaction
A reverse passive Arthus reaction is induced in the pleural cavity of male Lewis rats (150-200 g; fasted overnight prior to use) by the intravenous administration of bovine serum albumin (BSA; 4 mg/0.2 ml) followed 30 minutes later by the injection of rabbit anti-BSA (1 mg/0.2 ml; lyophilized IgG fraction; Organon Teknika, West Chester, Pa.) into the right pleural space under halothane anesthesia. Drugs or vehicle (0.5% Tween-80) control are administered orally in a volume of 1 ml/100 g body weight at 1 hour prior to the anti-BSA. Animals are sacrificed at either the time of peak eicosanoid production (i.e. 5 minutes after anti-BSA for immunoreactive TxB2, 10 minutes for immunoreactive LTB4, 20 minutes for immunoreactive LTC4) or at the time of peak neutrophil infiltration (4 hours after anti-BSA) by CO2 inhalation. The pleural cavity is then exposed., the fluid exudate removed by gentle vacuum aspiration and the volume of exudate is recorded. For the determination of cellular infiltration, the pleural cavity is rinsed with 3 ml of 0.1% EDTA in sterile saline, and the recovered wash is pooled with the exudate. Cell number is determined on a model ZBI Coulter counter. For determination of eicosanoid production, undiluted pleural exudate is microfuged and the supernatant is extracted with ethanol (8-10 times volume). Extracts are either stored at -20° C., or are evaporated to dryness under a stream of N2 and reconstituted in radioimmunoassay (RIA) buffer.
Eicosanoids are quantitated by RIA according to the procedure specified by the RIA kit manufacturer (Advanced Magnetics, Cambridge, Mass.). Briefly, 100 μl of ^3 H-labeled eicosanoid and 100 μl of specific antibody are sequentially added to 100 μl of extracted pleural exudate in BGG-phosphate buffer which contains 0.01M phosphate, 0.1% bovine gamma globulin and 0.1% sodium azide at pH 7.0. Antibody-bound eicosanoid is separated from unbound eicosanoid by the addition of 750 μl of dextran (0.4%)-coated charcoal (Norit A) containing 0.1% sodium azide. The mixture is centrifuged at 2000 RPM at 5° C. for 15 minutes to pellet the charcoal and adsorbed unbound eicosanoid. Antibody-bound labeled eicosanoid is quantitated by counting in a liquid scintillation counter, and is correlated to concentration by a standard curve.

The subject of test [1] is LT-dependent bronchoconstriction. As to the kind of experiment: Inhibition of Bronchoconstriction in Guinea Pigs Induced by Exogenously Administered Antigen. It counts as in vivo, guinea pig (male). The following applies: Cavia porcellus, 5 min, 5 min post-antigen challenge; for inhibition in vivo at 10 mg/kg: iv, 10 mg/kg i.v. How it is done:
4. Inhibition of Brochoconstriction in Guinea Pigs Induced by Exogenously Administered Antigen
Male guinea pigs (Charles River, Wilmington, Mass.) were sensitized 3-4 weeks prior to antigen challenge by administration of 2 i.m. injections of ovalbumin, 1 into each hind limb (35 mg total). Sensitized animals (500-600 g) were fasted overnight prior to experimentation. Conscious animals were then dosed p.o. with drug or vehicle alone (0.5% Tween 80 in H2 O) at the indicated times prior to antigen challenge, or anesthetized animals were dosed i.v. with drug or vehicle alone (DMSO) 5 min prior to antigen challenge. Animals were anesthetized by urethane (2.8 g/kg i.p.). A carotid artery and jugular vein were cannulated to allow for the monitoring of blood pressure and the administration of drugs, respectively. The trachea was then cannulated and connected to a Harvard Apparatus rodent ventilator (S. Natick, Mass.). Spontaneous respiration was abolished by the administration of succinylcholine (2.5 mg/kg i.v.). The animals were then ventilated with room air at a rate of 65 breaths per min. Airway inflation pressure was measured using a Statham pressure transducer (Gould Instruments, Cleveland, Ohio) connected to the tracheal cannula via a side-arm and recorded on a Grass Instruments recorder (Quincy, Mass.). The tidal volume (approximately 10 cc/kg) was adjusted to give a baseline inflation pressure of 8-10 cm H2 O at end inspiration. Animals were then allowed 20 min to stabilize.
Following the stabilization period, animals were given i.v. injections of pyrilamine (5 mg/kg), propranolol (0.1 mg/kg) and indomethacin (10 mg/kg) at 15, 10 and 5 min, respectively, prior to antigen challenge. This pretreatment results in an LT-dependent bronchoconstriction following antigen challenge, which was accomplished by i.v. administration of ovalbumin (10 mg/kg). Only one bronchoconstriction per animal was induced. End-inspiratory inflation pressure (in cm H2 O over baseline) was measured at 5 min post-antigen challenge. A mean value and standard error for the % inhibition of control bronchoconstriction in each drug-treated group was then calculated.

Take “1,3-Dihydroxy-1-[4-(5-methyl-2-phenyl-oxazol-4-ylmethoxy)-benzyl]-urea [Example 17]”: on 5-Lipoxygenase (10 μM), the “% Inhibition of LTB4” value turned out to be 83%. On to `NC1=NN(c2cccc(C(F)(F)F)c2)CC1` [BW755C, reference compound], for which, in the test on LTB4 Synthesis (p.o.), the ED50 was determined as 23 mg/kg. On to `O=C(O)Cc1ccccc1Nc1c(Cl)cccc1Cl` [Diclofenac, reference compound], for which, in the test with LTB4 Synthesis (10 mg/kg p.o.), the “% Inhibition of LTB4” value was determined as 0%.

`NC(=S)N(O)Cc1cccc(OCc2coc(-c3ccc(F)cc3)n2)c1` [Example 4, 1-Hydroxy-1-[3-[2-(4-fluoro-phenyl)-oxazol-4-ylmethoxy]-benzyl]-thiourea]: the inhibition at 1 µM at 5-Lipoxygenase came out at 61%. The inhibition in vivo at 10 mg/kg in test [1] stood at 53%. As to `COc1ccc(-c2nc(COc3cccc(CN(O)C(N)=O)c3)cs2)cc1` [Example 7, 1-Hydroxy-1-[3-[2-(4-methoxy-phenyl)-thiazol-4-ylmethoxy]-benzyl]-urea], the inhibition at 1 µM at 5-Lipoxygenase amounted to 50%. Further, in test [1], at 10 mg/kg the inhibition in vivo was 58%. In test [1] (po, 25 mg/kg p.o.), this compound gave an inhibition in vivo at 25 mg/kg of 18%.

Turning to `Cc1oc(-c2ccc(Cl)cc2)nc1COc1cccc(CN(O)C(N)=O)c1` [Example 8, 1-[3-[2-(4-Chloro-phenyl)-5-methyl-oxazol-4-ylmethoxy]-benzyl]-1-hydroxy-urea], the inhibition at 1 µM on 5-Lipoxygenase stood at 77%. The “% Inhibition LTB4 Synthesis” value in the test on LTB4 Synthesis (10 mg/kg, p.o.) came out at 39%. This compound also registered an inhibition in vivo at 10 mg/kg in test [1] of 41%. With `Cc1oc(-c2cccc(C(F)(F)F)c2)nc1COc1cccc(CN(O)C(N)=O)c1` [Example 10, 1-Hydroxy-1-[3-[2-(3-trifluoromethyl-phenyl)-5-methyl-oxazol-4-ylmethoxy]-benzyl]-urea], the inhibition at 1 µM on 5-Lipoxygenase was found to be 51%. Turning to `Cc1oc(-c2cc(C(F)(F)F)cc(C(F)(F)F)c2)nc1COc1cccc(CN(O)C(N)=O)c1` [Example 11, 1-[3-[2-(3,5-Bis-trifluoromethyl-phenyl)-5-methyl-oxazol-4-ylmethoxy]-benzyl]-1-hydroxy-urea], the inhibition at 10 µM at 5-Lipoxygenase (10 μM) came to 57%. On the same count and under the same terms, next, `Cc1oc(-c2ccc(C(F)(F)F)cc2)nc1COc1cc(F)cc(CN(O)C(N)=O)c1` [Example 12, 1-[3-Fluoro-5-[5-methyl-2-(4-trifluoromethyl-phenyl)-oxazol-4-ylmethoxy]-benzyl]-1-hydroxy-urea]: 85%; `Cc1oc(-c2ccccc2)nc1COc1cccc(C(C)N(O)C(N)=O)c1` (stereo not shown) [Example 14, 1-Hydroxy-1-[1-[3-(5-methyl-2-phenyl-oxazol-4-ylmethoxy)-phenyl]-ethyl]-urea]: 80%; `CC(/C=C/c1cccc(OCc2csc(-c3ccccc3)n2)c1)N(O)C(N)=O` (stereo not shown) [Example 15, (E)-1-Hydroxy-1-[1-methyl-3-[3-(2-phenyl-thiazol-4-ylmethoxy)-phenyl]-allyl]-urea]: 47%. Still for that read-out and setting: the value for `Cc1oc(-c2ccc(Cl)cc2)nc1COc1cccc(/C=C/C(C)N(O)C(N)=O)c1` (stereo not shown) [Example 16, (E)-1-[3-[3-[2-(4-chlorophenyl)-5-methyl-oxazol-4-ylmethoxy]-phenyl]-1-methyl-allyl]-1-hydroxyl-urea] was 57%; that for `Cc1oc(-c2ccccc2)nc1COc1cccc(CN(O)C(=O)N(C)O)c1` [Example 18, 1,3-Dihydroxy-3-methyl-1-[3-(5-methyl-2-phenyl-oxazol-4-ylmethoxy)benzyl]-urea] was 69%.

Regarding `COc1ccc2c(c1)c(CC(=O)O)c(C)n2C(=O)c1ccc(Cl)cc1` [Indomethacin, reference compound], in the test with LTB4 Synthesis (4 mg/kg p.o.), the “% Inhibition of LTB4” value amounted to 12%.

On to `CC(C(=O)O)c1cccc(C(=O)c2ccccc2)c1` (stereo not shown) [Ketoprofen, reference compound], for which, in the test with LTB4 Synthesis (10 mg/kg p.o.), the “% Inhibition of LTB4” value is listed as 35%. For `COc1ccc2cc([C@H](C)C(=O)O)ccc2c1` [Naproxen, reference compound], the “% Inhibition of LTB4” value in the test on LTB4 Synthesis (4 mg/kg p.o.) is 0%.

`O=C1CCN(c2ccccc2)N1` [Phenidone, reference compound]: the ED50 in the test with LTB4 Synthesis (p.o.) worked out at 10 mg/kg.
